Legend:
myeloperoxidase (MPO) [1] = biological target: T1, myeloperoxidase (MPO) (Homo sapiens (Human), UniProt P05164); assay: MPO chlorination assay (APF assay); format: biochemical; conditions: potency range class
Outline: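 Human MPO (200 pM) preincubated 10 min at room temperature with inhibitor and 120 mM NaCl in 100 mM KPi pH 7.4. Reaction started with APF plus 10 μM H2O2, and hypochlorite-generated fluorescein read kinetically (ex 485/em 535 nm) for 3 min. IC50 from linear-phase slopes fitted to a four-parameter equation.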

myeloperoxidase (MPO) [2] = biological target: T1, myeloperoxidase (MPO); assay: MPO peroxidation assay (Amplex Red assay); format: biochemical; conditions: potency range class
Outline: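 Human MPO at 200 pM with 40 nM H2O2 preincubated 10 min at room temperature with inhibitor in 100 mM KPi pH 7.4. Reaction started with Amplex Red mixture (200 μM Amplex Red, 10 mM H2O2); resorufin fluorescence (Ex 535, Em 590 nm) read kinetically for 15 min. IC50 fitted from slopes over 180-540 s.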

T1 sequence (P05164 49-745): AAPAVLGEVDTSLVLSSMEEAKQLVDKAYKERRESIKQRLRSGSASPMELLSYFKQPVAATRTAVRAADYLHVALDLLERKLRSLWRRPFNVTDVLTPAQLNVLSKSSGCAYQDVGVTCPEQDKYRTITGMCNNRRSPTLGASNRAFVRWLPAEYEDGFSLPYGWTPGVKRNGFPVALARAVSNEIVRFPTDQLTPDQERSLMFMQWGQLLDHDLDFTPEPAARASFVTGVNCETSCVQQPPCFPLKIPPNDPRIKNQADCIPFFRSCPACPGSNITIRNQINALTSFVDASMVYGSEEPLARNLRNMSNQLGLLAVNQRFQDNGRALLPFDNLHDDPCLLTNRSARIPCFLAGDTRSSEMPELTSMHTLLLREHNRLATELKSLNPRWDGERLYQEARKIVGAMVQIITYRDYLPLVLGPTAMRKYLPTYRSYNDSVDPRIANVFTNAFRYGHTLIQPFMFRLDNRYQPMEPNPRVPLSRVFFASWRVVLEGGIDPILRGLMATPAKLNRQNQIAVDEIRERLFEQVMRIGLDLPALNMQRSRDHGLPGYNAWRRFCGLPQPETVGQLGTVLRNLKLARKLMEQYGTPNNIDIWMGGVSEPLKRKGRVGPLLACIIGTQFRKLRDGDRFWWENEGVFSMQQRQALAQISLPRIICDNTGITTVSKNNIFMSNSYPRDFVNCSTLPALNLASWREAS

Row | IC50 (myeloperoxidase (MPO) [1]) [nM] | IC50 (myeloperoxidase (MPO) [2]) [nM] | SMILES
1 | 1 to 100 | 1 to 100 | Nc1cc(Cc2cnn(Cc3ccc4[nH]c(=O)ccc4c3)c2)c2nn[nH]c2n1 [Example 132, 6-((4-((5-Amino-3H-[1,2,3]triazolo[4,5-b]pyridin-7-yl)methyl)-1H-pyrazol-1-yl)methyl)quinolin-2(1H)-one]
2 | 1 to 100 | 1 to 100 | Nc1cc(Cc2cnn(Cc3cccc(-c4ccccn4)c3)c2)c2nn[nH]c2n1 [Example 133, 7-[(1-{[3-(Pyridin-2-yl)phenyl]methyl}-1H-pyrazol-4-yl)methyl]-3H-[1,2,3]triazolo[4,5-b]pyridin-5-amine]
3 | 1 to 100 | 1 to 100 | CC(C)(C)c1cccc(Cn2cc(Cc3cc(N)nc4[nH]nnc34)cn2)c1 [Example 134, 7-({1-[(3-tert-Butylphenyl)methyl]-1H-pyrazol-4-yl}methyl)-3H-[1,2,3]triazolo[4,5-b]pyridin-5-amine]
4 | 1 to 100 | 1 to 100 | Nc1cc(Cc2cnn(Cc3cccc4c3CCCC4)c2)c2nn[nH]c2n1 [Example 135, 7-{[1-(5,6,7,8-Tetrahydronaphthalen-1-ylmethyl)-1H-pyrazol-4-yl]methyl}-3H-[1,2,3]triazolo[4,5-b]pyridin-5-amine]
5 | 1 to 100 | 1 to 100 | Nc1cc(Cc2cnn(CC3CCc4ccccc4C3)c2)c2nn[nH]c2n1 (stereo not shown) [Example 136, 7-{[1-(1,2,3,4-Tetrahydronaphthalen-2-ylmethyl)-1H-pyrazol-4-yl]methyl}-3H-[1,2,3]triazolo[4,5-b]pyridin-5-amine]
6 | 101 to 999 | 1 to 100 | Cn1nc(Cn2cc(Cc3cc(N)nc4[nH]nnc34)cn2)c2ccccc21 [Example 137, 7-({1-[(1-Methyl-1H-indazol-3-yl)methyl]-1H-pyrazol-4-yl}methyl)-3H-[1,2,3]triazolo[4,5-b]pyridin-5-amine]
7 | 101 to 999 | 1 to 100 | CCn1c(Cn2cc(Cc3cc(N)nc4[nH]nnc34)cn2)nc2ccccc21 [Example 138, 7-((1-((1-Ethyl-1H-benzo[d]imidazol-2-yl)methyl)-1H-pyrazol-4-yl)methyl)-3H-[1,2,3]triazolo[4,5-b]pyridin-5-amine]
8 | 101 to 999 | 1 to 100 | CC1CCN(S(=O)(=O)c2cccc(Cn3cc(Cc4cc(N)nc5[nH]nnc45)cn3)c2)CC1 [Example 139, 7-{[1-({3-[(4-Methylpiperidin-1-yl)sulfonyl]phenyl}methyl)-1H-pyrazol-4-yl]methyl}-3H-[1,2,3]triazolo[4,5-b]pyridin-5-amine]
9 | 101 to 999 | 1 to 100 | Cc1cncc(Oc2cccc(Cn3cc(Cc4cc(N)nc5[nH]nnc45)cn3)c2)n1 [Example 140, 7-{[1-({3-[(6-Methylpyrazin-2-yl)oxy]phenyl}methyl)-1H-pyrazol-4-yl]methyl}-3H-[1,2,3]triazolo[4,5-b]pyridin-5-amine]
10 | 1 to 100 | 1 to 100 | COc1ccc(Cn2cc(Cc3cc(N)nc4[nH]nnc34)cn2)cc1 [Example 141, 7-({1-[(4-Methoxyphenyl)methyl]-1H-pyrazol-4-yl}methyl)-3H-[1,2,3]triazolo[4,5-b]pyridin-5-amine]
11 | 101 to 999 | 101 to 999 | Nc1cc(Cc2cnn(C(CCO)c3ccccc3)c2)c2nn[nH]c2n1 (stereo not shown) [Example 143, 3-(4-((5-Amino-3H-[1,2,3]triazolo[4,5-b]pyridin-7-yl)methyl)-1H-pyrazol-1-yl)-3-phenylpropan-1-ol]
12 | 101 to 999 | 101 to 999 | CC(C)(C)[Si](C)(C)OCC(c1ccccc1)n1cc(Cc2cc(N)nc3[nH]nnc23)cn1 (stereo not shown) [Example 144]
13 | 101 to 999 | 101 to 999 | Nc1cc(Cc2cnn(C(CO)c3ccccc3)c2)c2nn[nH]c2n1 (stereo not shown) [Example 145, 2-(4-((5-Amino-3H-[1,2,3]triazolo[4,5-b]pyridin-7-yl)methyl)-1H-pyrazol-1-yl)-2-phenylethanol]
14 | 101 to 999 | 101 to 999 | Nc1cc(Cc2cnn(C(CCCO)c3ccccc3)c2)c2nn[nH]c2n1 (stereo not shown) [Example 146, 4-[4-({5-Amino-3H-[1,2,3]triazolo[4,5-b]pyridin-7-yl}methyl)-1H-pyrazol-1-yl]-4-phenylbutan-1-ol]
15 | 101 to 999 | 101 to 999 | CC(C)(C)OC(=O)N1CCCc2ccc(Cn3cc(Cc4cc(N)nc5[nH]nnc45)cn3)cc21 [Example 147, tert-Butyl 7-{[4-({5-amino-3H-[1,2,3]triazolo[4,5-b]pyridin-7-yl}methyl)-1H-pyrazol-1-yl]methyl}-1,2,3,4-tetrahydroquinoline-1-carboxylate]
16 | 101 to 999 | 101 to 999 | CC(C)(C)OC(=O)N1CCc2ccc(Cn3cc(Cc4cc(N)nc5[nH]nnc45)cn3)cc2C1 [Example 148, tert-Butyl 7-{[4-({5-amino-3H-[1,2,3]triazolo[4,5-b]pyridin-7-yl}methyl)-1H-pyrazol-1-yl]methyl}-1,2,3,4-tetrahydroisoquinoline-2-carboxylate]

Row | IC50 (myeloperoxidase (MPO) [1]) [nM] | IC50 (myeloperoxidase (MPO) [2]) [nM] | SMILES
17 | 101 to 999 | 1 to 100 | COc1ccc(Cn2cc(Cc3cc(N)nc4[nH]nnc34)cn2)cn1 [Example 149, 7-({1-[(6-Methoxypyridin-3-yl)methyl]-1H-pyrazol-4-yl}methyl)-3H-[1,2,3]triazolo[4,5-b]pyridin-5-amine]
18 | 101 to 999 | 1 to 100 | Nc1cc(Cc2cnn(Cc3ccc4c(c3)OCO4)c2)c2nn[nH]c2n1 [Example 150, 7-{[1-(2H-1,3-Benzodioxol-5-ylmethyl)-1H-pyrazol-4-yl]methyl}-3H-[1,2,3]triazolo[4,5-b]pyridin-5-amine]
19 | 101 to 999 | 1 to 100 | Nc1cc(Cc2cnn(Cc3ccc4c(c3)OCCO4)c2)c2nn[nH]c2n1 [Example 151, 7-{[1-(2,3-Dihydro-1,4-benzodioxin-6-ylmethyl)-1H-pyrazol-4-yl]methyl}-3H-[1,2,3]triazolo[4,5-b]pyridin-5-amine]
20 | 1 to 100 | 1000 to 10000 | Nc1cc(Cc2cnn(Cc3ccc4c(c3)NCCC4)c2)c2nn[nH]c2n1 [Example 152, 7-{[1-(1,2,3,4-Tetrahydroquinolin-7-ylmethyl)-1H-pyrazol-4-yl]methyl}-3H-[1,2,3]triazolo[4,5-b]pyridin-5-amine]
21 | 1 to 100 | 1 to 100 | Nc1cc(Cc2cnn(Cc3ccc4c(c3)CNCC4)c2)c2nn[nH]c2n1 [Example 153, 7-{[1-(1,2,3,4-Tetrahydroisoquinolin-7-ylmethyl)-1H-pyrazol-4-yl]methyl}-3H-[1,2,3]triazolo[4,5-b]pyridin-5-amine]
22 | 101 to 999 | 101 to 999 | N#Cc1cccc(-c2ccc(Cn3cc(Cc4cc(N)nc5[nH]nnc45)cn3)cc2)c1 [Example 154, 3-(4-{[4-({5-Amino-3H-[1,2,3]triazolo[4,5-b]pyridin-7-yl}methyl)-1H-pyrazol-1-yl]methyl}phenyl)benzonitrile]
23 | 101 to 999 | 101 to 999 | Nc1cc(Cc2cnn(Cc3cccc(-c4ccc(OC(F)(F)F)cc4)c3)c2)c2nn[nH]c2n1 [Example 155, 7-{[1-({3-[4-(Trifluoromethoxy)phenyl]phenyl}methyl)-1H-pyrazol-4-yl]methyl}-3H-[1,2,3]triazolo[4,5-b]pyridin-5-amine]
24 | 1 to 100 | 1 to 100 | COc1ncc(-c2cccc(Cn3cc(Cc4cc(N)nc5[nH]nnc45)cn3)c2)cn1 [Example 156, 7-[(1-{[3-(2-Methoxypyrimidin-5-yl)phenyl]methyl}-1H-pyrazol-4-yl)methyl]-3H-[1,2,3]triazolo[4,5-b]pyridin-5-amine]
25 | 101 to 999 | 101 to 999 | Nc1cc(Cc2cnn(Cc3cccc(-c4cnoc4)c3)c2)c2nn[nH]c2n1 [Example 157, 7-[(1-{[3-(1,2-Oxazol-4-yl)phenyl]methyl}-1H-pyrazol-4-yl)methyl]-3H-[1,2,3]triazolo[4,5-b]pyridin-5-amine]
26 | 1 to 100 | 1 to 100 | N#Cc1cccc(Cn2cc(Cc3cc(N)nc4[nH]nnc34)cn2)c1 [Example 158, 3-{[4-({5-Amino-3H-[1,2,3]triazolo[4,5-b]pyridin-7-yl}methyl)-1H-pyrazol-1-yl]methyl}benzonitrile]
27 | 101 to 999 | 1 to 100 | CN1CCc2cc(Cn3cc(Cc4cc(N)nc5[nH]nnc45)cn3)ccc2C1 [Example 159, -((1-((2-Methyl-1,2,3,4-tetrahydroisoquinolin-6-yl)methyl)-1H-pyrazol-4-yl)methyl)-3H-[1,2,3]triazolo[4,5-b]pyridin-5-amine]
28 | 1 to 100 | 1 to 100 | Nc1cc(Cn2nnc3ccccc32)c2nn[nH]c2n1 [Example 160, 7-(1H-1,2,3-Benzotriazol-1-ylmethyl)-3H-[1,2,3]triazolo[4,5-b]pyridin-5-amine]
29 | 1000 to 10000 | 101 to 999 | Nc1cc(Cn2ncc(-c3ccccc3)n2)c2nn[nH]c2n1 [Example 161, 7-[(4-Phenyl-2H-1,2,3-triazol-2-yl)methyl]-3H-[1,2,3]triazolo[4,5-b]pyridin-5-amine]
30 | 101 to 999 | 101 to 999 | Nc1cc(Cn2cc(-c3ccccc3)nn2)c2nn[nH]c2n1 [Example 162, 7-[(4-Phenyl-1H-1,2,3-triazol-1-yl)methyl]-3H-[1,2,3]triazolo[4,5-b]pyridin-5-amine]
31 | 1000 to 10000 | 1000 to 10000 | Nc1cc(Cn2nc3ccc(Cl)cc3n2)c2nn[nH]c2n1 [Example 163, 7-[(5-Chloro-2H-1,2,3-benzotriazol-2-yl)methyl]-3H-[1,2,3]triazolo[4,5-b]pyridin-5-amine]
32 | 1000 to 10000 | 1000 to 10000 | Nc1cc(Cn2nc3cccc(Cl)c3n2)c2nn[nH]c2n1 [Example 164, 7-[(4-Chloro-2H-1,2,3-benzotriazol-2-yl)methyl]-3H-[1,2,3]triazolo[4,5-b]pyridin-5-amine]

Source: patent US10407422B2, “Triazolopyridine inhibitors of myeloperoxidase” (priority 2015, dated 2019)
